In brackets after ≈: the same amount, converted by molar mass. Activity calls are given as the source filed them. No cut-off for these calls is given here.
Columns and labels:
[1] = Drug concentration in BALB/c mouse plasma at 10 mg/kg,po administration measured within 15 mins by LC-MS/MS analysis; assay type: ADME, organism-based
Staphylococcus aureus [2] = assay: Antibacterial activity against Staphylococcus aureus ATCC25923 assessed as inhibition of bacterial growth incubated for 18 hrs by microdilution broth assay; assay type: functional
Enterococcus faecalis [3] = assay: Antibacterial activity against Linezolid resistant Enterococcus faecalis clinical isolate 20-1 assessed as inhibition of bacterial growth incubated for 7 days by alamar blue assay; assay type: functional; conditions: clinical isolate 20-1, 168 h, time 7 day
Staphylococcus aureus [4] = assay: (§1) Antibacterial activity against methicillin resistant Staphylococcus aureus ATCC 33592 infected in cyclophosphamide-induced immunosuppressed Kunming mouse assessed as reduction in bacterial load in kidney at 25 to 50 mg/kg,po administration measured after 24 hrs by hematoxylin and eosin staining based microscopy; assay type: functional, organism-based; conditions: dose 25-50 mg/kg
Staphylococcus aureus [5] = assay: as §1, with “histopathological change” for “bacterial load”, “lung” for “kidney”; assay type: functional, organism-based; conditions: dose 25-50 mg/kg
Staphylococcus aureus [6] = assay: as §1, with “appearance of inflated alveoli” for “reduction”, “lung” for “bacterial load in kidney”, “at” for “at 25 to”; assay type: functional, organism-based
[7] = Cmax in BALB/c mouse at 10 mg/kg,po administration measured upto 24 hrs by LC-MS/MS analysis; assay type: ADME, organism-based; conditions: in vivo
Cell membrane [8] = assay: Disruption of cell membrane integrity in Staphylococcus aureus ATCC 25923 assessed as increase in red fluorescence at 0.5 ug/ml incubated for 1 hr by […] and propidium iodide double staining based confocal microscopic analysis; assay type: cell membranes; conditions: dose 0.5 µg/ml
Staphylococcus aureus [9] = assay: Antibacterial activity against methicillin resistant Staphylococcus aureus ATCC 33592 infected in cyclophosphamide-induced immunosuppressed Kunming mouse assessed as increase in white blood cell at 25 to 50 mg/kg,po administration measured after 7 days by Giemsa staining based analysis; assay type: functional, organism-based; conditions: dose 25-50 mg/kg, time 7.0 day
[10] = Metabolic stability in ICR mouse liver microsomes assessed as compound remaining at 10 uM incubated for 60 mins in absence of NADPH by LC-MS/MS analysis; assay type: ADME, Microsome; conditions: read-out: Stability
[11] = Tmax in BALB/c mouse at 10 mg/kg,po administration measured upto 24 hrs by LC-MS/MS analysis; assay type: ADME, organism-based; conditions: in vivo
Cell membrane [12] = assay: Disruption of cell membrane integrity in methicillin resistant Staphylococcus aureus ATCC 33592 assessed as increase in red fluorescence at 0.5 ug/ml incubated for 1 hr by […] and propidium iodide double staining based confocal microscopic analysis; assay type: cell membranes; conditions: dose 0.5 µg/ml
Cell membrane [13] = assay: Disruption of cell membrane in methicillin resistant Staphylococcus aureus ATCC 33592 assessed as cell surface perforation at 0.5 ug/ml incubated for 6 hrs by Scanning electron microscopic analysis; assay type: cell membranes; conditions: dose 0.5 µg/ml
Cell membrane [14] = assay: Disruption of cell membrane integrity in Staphylococcus aureus ATCC 25923 assessed as increase in red fluorescence at 1 ug/ml incubated for 1 hr by […] and propidium iodide double staining based confocal microscopic analysis; assay type: cell membranes; conditions: dose 1.0 µg/ml
Staphylococcus aureus [15] = assay: as §1, with “inflammatory cell infiltration” for “bacterial load”, “at” for “at 25 to”; assay type: functional, organism-based
Staphylococcus aureus [16] = assay: Antibacterial activity against methicillin resistant Staphylococcus aureus ATCC 33592 infected in cyclophosphamide-induced immunosuppressed Kunming mouse by measuring survival rate of mouse at 50 mg/kg,po administration measured for 7 days; assay type: functional; conditions: ATCC 33592, 168 h, time 7 day
Enterococcus faecalis [17] = assay: Antibacterial activity against Linezolid resistant Enterococcus faecalis clinical isolate 20-2 assessed as inhibition of bacterial growth incubated for 7 days by alamar blue assay; assay type: functional; conditions: clinical isolate 20-2, 168 h, time 7 day
[18] = Cmax in BALB/c mouse at 1 mg/kg,iv administration measured upto 24 hrs by LC-MS/MS analysis; assay type: ADME, organism-based; conditions: in vivo
[19] = MRT (0 to t) in BALB/c mouse at 10 mg/kg,po administration measured upto 24 hrs by LC-MS/MS analysis; assay type: ADME, organism-based; conditions: in vivo
Staphylococcus aureus [20] = assay: Antibacterial activity against methicillin resistant Staphylococcus aureus ATCC 33592 infected in cyclophosphamide-induced immunosuppressed Kunming mouse assessed as increase in IL-10 level at po administration measured after 24 hrs by ELISA; assay type: functional, organism-based
[21] = AUC (0 to t) in BALB/c mouse at 10 mg/kg,po administration measured upto 24 hrs by LC-MS/MS analysis; assay type: ADME, organism-based; conditions: in vivo
[22] = tested on: Staphylococcus epidermidis; assay: Antibacterial activity against methicillin resistant Staphylococcus epidermidis clinical isolate 20-1 assessed as inhibition of bacterial growth incubated for 7 days by alamar blue assay; assay type: functional; conditions: clinical isolate 20-1, 168 h, time 7 day
Staphylococcus aureus [23] = assay: Antibacterial activity against methicillin resistant Staphylococcus aureus clinical isolate 20-1 assessed as inhibition of bacterial growth incubated for 7 days by alamar blue assay; assay type: functional; conditions: clinical isolate 20-1, 168 h, time 7 day
Staphylococcus aureus [24] = assay: as §1, with “pigment deposition” for “bacterial load”, “spleen” for “kidney”, “10” for “25 to 50”; assay type: functional, organism-based
Bacillus subtilis = assay: Antibacterial activity against Bacillus subtilis ATCC6633 assessed as inhibition of bacterial growth incubated for 18 hrs by microdilution broth assay; assay type: functional
[25] = Metabolic stability in human liver microsomes assessed as compound remaining at 10 uM incubated for 60 mins in absence of NADPH by LC-MS/MS analysis; assay type: ADME, Microsome; conditions: read-out: Stability
Cell membrane [26] = assay: Disruption of cell membrane integrity in methicillin resistant Staphylococcus aureus ATCC 33592 assessed as increase in blue fluorescence at 1 ug/ml incubated for 1 hr by […] and propidium iodide double staining based confocal microscopic analysis; assay type: cell membranes; conditions: dose 1.0 µg/ml
Cell membrane [27] = assay: Disruption of cell membrane in methicillin resistant Staphylococcus aureus ATCC 33592 assessed as cell lysis at 0.5 ug/ml incubated for 6 hrs by Scanning electron microscopic analysis; assay type: cell membranes; conditions: dose 0.5 µg/ml
Staphylococcus aureus [28] = assay: Induction of resistant development in methicillin resistant Staphylococcus aureus ATCC 33592 assessed as fold increase in MIC at 0.5 to 4 ug/ml measured after 30 serial passages by broth microdilution analysis; assay type: functional; conditions: dose 0.5-4 µg/ml
Staphylococcus aureus [29] = assay: Antibacterial activity against Linezolid resistant Staphylococcus aureus clinical isolate 20-2 assessed as inhibition of bacterial growth incubated for 7 days by alamar blue assay; assay type: functional; conditions: clinical isolate 20-2, 168 h, time 7 day
Staphylococcus aureus [30] = assay: Antibacterial activity against Linezolid resistant Staphylococcus aureus assessed as inhibition of bacterial growth incubated for 7 days by alamar blue assay; assay type: functional; conditions: 168 h, time 7 day
[31] = Oral bioavailability in BALB/c mouse at 10 mg/kg administration measured upto 24 hrs by LC-MS/MS analysis; assay type: ADME, organism-based; conditions: BALB/c, in vivo
Staphylococcus aureus [32] = assay: as §1, with “histopathological change” for “bacterial load”, “spleen” for “kidney”, “10” for “25 to 50”; assay type: functional, organism-based
[33] = Metabolic stability in human liver microsomes assessed as substrate remaining at 10 uM incubated for 60 mins in presence of NADPH by LC-MS/MS analysis; assay type: ADME, Microsome; conditions: read-out: Stability
Staphylococcus aureus [34] = assay: as §1, with “congestion” for “bacterial load”, “spleen” for “kidney”, “10” for “25 to 50”; assay type: functional, organism-based
Staphylococcus aureus [35] = assay: Antibacterial activity against methicillin resistant Staphylococcus aureus ATCC 33592 infected in cyclophosphamide-induced immunosuppressed Kunming mouse by measuring survival rate of mouse at 25 mg/kg,po administration measured for 7 days; assay type: functional; conditions: ATCC 33592, 168 h, time 7 day

## CC(=O)NC[C@@H]1OC(=O)N2Cc3cc(-c4ccc(C#N)cc4)c(F)cc3O[C@@H]12
[1]
  concentration at 0.25 h: 1000 ng/mL
Staphylococcus aureus [2]
  MIC: 0.5 µg/mL (≈ 1.31 µM)
Enterococcus faecalis [3]
  MIC: 1 µg/mL (≈ 2.62 µM)
Staphylococcus aureus [4]
  Activity: Active
Staphylococcus aureus [5]
  Activity: Active
Staphylococcus aureus [6]
  Activity: Active
[7]
  Cmax: 4510 ng/mL
Cell membrane [8]
  Activity: Active
Staphylococcus aureus [9]
  Activity: Active
[10]
  remaining at 1 h, 10 µM: 101%
[11]
  Tmax: 2 h
Cell membrane [12]
  Activity: Active
Cell membrane [13]
  Activity: Active
Cell membrane [14]
  Activity: Active
Staphylococcus aureus [15]
  Activity: Active
Staphylococcus aureus [16]
  survival at 50 mg/kg: 100%
Enterococcus faecalis [17]
  MIC: 1 µg/mL (≈ 2.62 µM)
[18]
  Cmax: 814 ng/mL
[19]
  MRT last at 24 h: 9.3 h
Staphylococcus aureus [20]
  Activity: Dose-Dependent Effect
[21]
  AUC(0-t) at 24 h: 62500 ng·h/mL
[22]
  MIC: 0.06 µg/mL (≈ 0.157 µM)
Staphylococcus aureus [23]
  MIC: 0.5 µg/mL (≈ 1.31 µM)
Staphylococcus aureus [24]
  Activity: Active
Bacillus subtilis
  MIC: 0.032 µg/mL (≈ 0.0839 µM)
[25]
  remaining at 1 h, 10 µM: 120%
Cell membrane [26]
  Activity: Active
Cell membrane [27]
  Activity: Active
Staphylococcus aureus [28]
  fold change (FC): 8
Staphylococcus aureus [29]
  MIC: 8 µg/mL (≈ 21 µM)
Staphylococcus aureus [30]
  MIC: 2 µg/mL (≈ 5.24 µM)
[31]
  bioavailability: 122%
Staphylococcus aureus [32]
  Activity: Active
[33]
  remaining at 1 h, 10 µM: 116%
Staphylococcus aureus [34]
  Activity: Active
Staphylococcus aureus [35]
  survival at 25 mg/kg: 100%

From ChEMBL document CHEMBL5608235, “Tricyclic Benzo[1,3]oxazinyloxazolidinones as Potent Antibacterial Agents against Drug-Resistant Pathogens” (J Med Chem, 2024)
